Experimental data: ChEMBL document CHEMBL1153685, “Design, synthesis, and evaluation of orally active fibrinogen inhibitors” (Bioorg Med Chem Lett, 1997)
Each block holds one compound with its values, some of them ahead of it.

Columns and labels:
Type in all cases: functional
[1] = organism: Homo sapiens; experiment: The compound was tested in vitro for its anti-platelet activity against human platelets in presence of ADP
[2] = organism: Rattus norvegicus; experiment: The compound was tested for its stability in intestinal juice of rats after 0 h
[3] = organism: Rattus norvegicus; experiment: The compound was tested for its stability in intestinal juice of rats after 2 h
[4] = organism: Rattus norvegicus; experiment: The compound was tested for its stability in intestinal juice of rats after 5 h
[5] = organism: Rattus norvegicus; experiment: The compound was tested for its stability in intestinal juice of rats after 7 h
[6] = tested on: Canis familiaris; experiment: Tested ex vivo for its inhibitory activity at 1 hr against dogs after oral administration of 3.2 mg/Kg dose to evaluate bioavailability; conditions: Canis lupus familiaris
[7] = tested on: Canis familiaris; experiment: Tested ex vivo for its inhibitory activity at 3 hr against dogs after oral administration of 1 mg/Kg dose to evaluate bioavailability; conditions: Canis lupus familiaris
[8] = tested on: Canis familiaris; experiment: Tested ex vivo for its inhibitory activity at 3 hr against dogs after oral administration of 10 mg/Kg dose to evaluate bioavailability; conditions: Canis lupus familiaris
[9] = tested on: Canis familiaris; experiment: Tested ex vivo for its inhibitory activity at 6 hr against dogs after oral administration of 10 mg/Kg dose to evaluate bioavailability; conditions: Canis lupus familiaris
[10] = tested on: Canis familiaris; experiment: Tested ex vivo for its inhibitory activity at 6 hr against dogs after oral administration of 3.2 mg/Kg dose to evaluate bioavailability; conditions: Canis lupus familiaris
[11] = tested on: Canis familiaris; experiment: Tested ex vivo for its inhibitory activity at 8 hr against dogs after oral administration of 10 mg/Kg dose to evaluate bioavailability; conditions: Canis lupus familiaris
[12] = tested on: Canis familiaris; experiment: Tested ex vivo for its inhibitory activity at 8 hr against dogs after oral administration of 3.2 mg/Kg dose to evaluate bioavailability; conditions: Canis lupus familiaris
[13] = tested on: Canis familiaris; experiment: Tested ex vivo for its inhibitory activity at 1 hr against dogs after oral administration of 1 mg/Kg dose to evaluate bioavailability; conditions: Canis lupus familiaris
[14] = organism: Canis familiaris; experiment: The compound was tested in vitro for its anti-platelet activity against dog platelets in presence of ADP; conditions: Canis lupus familiaris
[15] = tested on: Cavia porcellus; experiment: Tested ex vivo for its inhibitory activity at 2 hr against guinea pig after oral administration of 0.32 mg/Kg dose to evaluate bioavailability
[16] = tested on: Cavia porcellus; experiment: Tested ex vivo for its inhibitory activity at 2 hr against guinea pig after oral administration of 1 mg/Kg dose to evaluate bioavailability
[17] = tested on: Cavia porcellus; experiment: Tested ex vivo for its inhibitory activity at 3 hr against guinea pig after oral administration of 1 mg/Kg dose to evaluate bioavailability
[18] = tested on: Cavia porcellus; experiment: Tested ex vivo for its inhibitory activity at 1 hr against guinea pig after oral administration of 0.1 mg/Kg dose to evaluate bioavailability
[19] = tested on: Cavia porcellus; experiment: Tested ex vivo for its inhibitory activity at 1 hr against guinea pig after oral administration of 0.32 mg/Kg dose to evaluate bioavailability
[20] = tested on: Cavia porcellus; experiment: Tested ex vivo for its inhibitory activity at 1 hr against guinea pig after oral administration of 1 mg/Kg dose to evaluate bioavailability
[21] = tested on: Rattus norvegicus; experiment: Tested ex vivo for its inhibitory activity at 0.5 hr against rats after oral administration of 3.2 mg/Kg dose to evaluate bioavailability
[22] = tested on: Rattus norvegicus; experiment: Tested ex vivo for its inhibitory activity at 1 h against rats after oral administration of 3.2 mg/Kg dose to evaluate bioavailability
[23] = tested on: Rattus norvegicus; experiment: Tested ex vivo for its inhibitory activity at 2 h against rats after oral administration of 3.2 mg/Kg dose to evaluate bioavailability
[24] = The ratio of anti-platelet activity against dog platelets to that of human platelets was determined
[25] = tested on: Canis familiaris; experiment: Tested ex vivo for its inhibitory activity at 3 hr against dogs after oral administration of 3.2 mg/Kg dose to evaluate bioavailability; conditions: Canis lupus familiaris
[26] = tested on: Canis familiaris; experiment: Tested ex vivo for its inhibitory activity at 1 hr against dogs after oral administration of 32 mg/Kg dose to evaluate bioavailability; conditions: Canis lupus familiaris
[27] = tested on: Canis familiaris; experiment: Tested ex vivo for its inhibitory activity at 2 hr against dogs after oral administration of 3.2 mg/Kg dose to evaluate bioavailability; conditions: Canis lupus familiaris
[28] = tested on: Canis familiaris; experiment: Tested ex vivo for its inhibitory activity at 2 h against dogs after oral administration of 32 mg/Kg dose to evaluate bioavailability; conditions: Canis lupus familiaris
[29] = tested on: Canis familiaris; experiment: Tested ex vivo for its inhibitory activity at 3 hr against dogs after oral administration of 32 mg/Kg dose to evaluate bioavailability; conditions: Canis lupus familiaris
[30] = tested on: Cavia porcellus; experiment: Tested ex vivo for its inhibitory activity at 3 hr against guinea pig after oral administration of 3.2 mg/Kg dose to evaluate bioavailability
[31] = tested on: Cavia porcellus; experiment: Tested ex vivo for its inhibitory activity at 6 hr against guinea pig after oral administration of 3.2 mg/Kg dose to evaluate bioavailability
[32] = tested on: Cavia porcellus; experiment: Tested ex vivo for its inhibitory activity at 1 hr against guinea pig after oral administration of 3.2 mg/Kg dose to evaluate bioavailability
[33] = tested on: Rattus norvegicus; experiment: Tested ex vivo for its inhibitory activity at 0.5 hr against rats after oral administration of 10 mg/Kg dose to evaluate bioavailability
[34] = tested on: Rattus norvegicus; experiment: Tested ex vivo for its inhibitory activity at 0.5 hr against rats after oral administration of 20 mg/Kg dose to evaluate bioavailability
[35] = tested on: Rattus norvegicus; experiment: Tested ex vivo for its inhibitory activity at 1 hr against rats after oral administration of 10 mg/Kg dose to evaluate bioavailability
[36] = tested on: Rattus norvegicus; experiment: Tested ex vivo for its inhibitory activity at 1 hr against rats after oral administration of 20 mg/Kg dose to evaluate bioavailability
[37] = tested on: Rattus norvegicus; experiment: Tested ex vivo for its inhibitory activity at 2 hr against rats after oral administration of 10 mg/Kg dose to evaluate bioavailability
[38] = organism: Rattus norvegicus; experiment: Tested for its stability in intestinal juice of rats after 0 h
[39] = organism: Rattus norvegicus; experiment: Tested for its stability in intestinal juice of rats after 2 h
[40] = organism: Rattus norvegicus; experiment: Tested for its stability in intestinal juice of rats after 5 h
[41] = tested on: Rattus norvegicus; experiment: Tested ex vivo for its inhibitory activity at 2 hr against rats after oral administration of 20 mg/Kg dose to evaluate bioavailability
[42] = tested on: Canis familiaris; experiment: Tested ex vivo for its inhibitory activity at 1 hr against dogs after oral administration of 10 mg/Kg dose to evaluate bioavailability; conditions: Canis lupus familiaris

IC50 [1]: 1200 nM
SMILES: CC(C)CNC(=O)[C@H](CC(=O)O)NC(=O)CCCOc1ccc(C(=N)N)cc1
Remains [2]: 100%
Remains [3]: 80.4%
Remains [4]: 83.6%
Remains [5]: 86.2%

IC50 [1]: 670 nM
SMILES: CC(C)[C@H](NC(=O)[C@H](CC(=O)O)NC(=O)CCCOc1ccc(C(=N)N)cc1)C(N)=O
Remains [2]: 100%
Remains [3]: 105.6%
Remains [4]: 107.3%

IC50 [1]: 1400 nM
SMILES: CC(C)C(C)NC(=O)[C@H](CC(=O)O)NC(=O)CCCOc1ccc(C(=N)N)cc1 (stereo not given in full)

IC50 [1]: 180 nM
SMILES: CC(C)[C@H](NC(=O)[C@H](CC(=O)O)NC(=O)CCCOc1ccc(C(=N)N)cc1)C(=O)N1CCN(C)CC1

IC50 [1]: 440 nM
SMILES: COc1ccc(CCNC(=O)[C@H](CC(=O)O)NC(=O)CCCOc2ccc(C(=N)N)cc2)cc1
Remains [2]: 100%
Remains [3]: 100.5%
Remains [4]: 105.7%

IC50 [1]: 210 nM
SMILES: CC(C)[C@H](NC(=O)[C@H](CC(=O)O)NC(=O)CCCOc1ccc(C(=N)N)cc1)C(=O)NC1CCCCC1

IC50 [1]: 370 nM
SMILES: CC(C)Oc1ccc(CCNC(=O)[C@H](CC(=O)O)NC(=O)CCCOc2ccc(C(=N)N)cc2)cc1

IC50 [1]: 340 nM
SMILES: CCOc1ccc(CCNC(=O)[C@H](CC(=O)O)NC(=O)CCCOc2ccc(C(=N)N)cc2)cc1

IC50 [1]: 540 nM
SMILES: COc1ccc(CCNC(=O)[C@H](CC(=O)O)NC(=O)CCCOc2ccc(C(=N)N)cc2)cc1OC

IC50 [14]: 110 nM
IC50 [1]: 30 nM
SMILES: CC(C)[C@H](NC(=O)[C@H](CC(=O)O)NC(=O)CCCOc1ccc(C(=N)N)cc1)C(=O)N1CCS(=O)(=O)CC1
inhibition in vivo at 3.2 mg/kg [6]: 85%
inhibition in vivo at 1 mg/kg [7]: 11%
inhibition in vivo at 10 mg/kg [8]: 80%
inhibition in vivo at 10 mg/kg [9]: 65%
inhibition in vivo at 3.2 mg/kg [10]: 46%
inhibition in vivo at 10 mg/kg [11]: 45%
inhibition in vivo at 3.2 mg/kg [12]: 0%
inhibition in vivo at 1 mg/kg [13]: 40%
inhibition in vivo at 0.32 mg/kg [15]: 50%
inhibition in vivo at 1 mg/kg [16]: 59%
inhibition in vivo at 1 mg/kg [17]: 21%
inhibition in vivo at 0.1 mg/kg [18]: 49%
inhibition in vivo at 0.32 mg/kg [19]: 69%
inhibition in vivo at 1 mg/kg [20]: 100%
inhibition in vivo at 3.2 mg/kg [21]: 76%
inhibition in vivo at 3.2 mg/kg [22]: 97%
inhibition in vivo at 3.2 mg/kg [23]: 44%
Ratio [24]: 3.7
inhibition in vivo at 3.2 mg/kg [25]: 65%

IC50 [14]: 380 nM
IC50 [1]: 100 nM
SMILES: CC(C)[C@H](NC(=O)[C@H](CC(=O)O)NC(=O)CCCOc1ccc(C(=N)N)cc1)C(=O)O
inhibition in vivo at 3.2 mg/kg [6]: 19%
inhibition in vivo at 32 mg/kg [26]: 58%
inhibition in vivo at 3.2 mg/kg [27]: 30%
inhibition in vivo at 32 mg/kg [28]: 29%
inhibition in vivo at 32 mg/kg [29]: 18%
inhibition in vivo at 1 mg/kg [17]: 34%
inhibition in vivo at 3.2 mg/kg [30]: 64%
inhibition in vivo at 3.2 mg/kg [31]: 19%
inhibition in vivo at 0.32 mg/kg [19]: 70%
inhibition in vivo at 1 mg/kg [20]: 99%
inhibition in vivo at 3.2 mg/kg [32]: 100%
inhibition in vivo at 10 mg/kg [33]: 24%
inhibition in vivo at 20 mg/kg [34]: 45%
inhibition in vivo at 10 mg/kg [35]: 18%
inhibition in vivo at 20 mg/kg [36]: 33%
inhibition in vivo at 10 mg/kg [37]: 4%
Remains [38]: 100%
Remains [39]: 63.8%
Remains [40]: 45.1%
Remains [2]: 100%
Remains [3]: 61.3%
Remains [4]: 25.6%
Remains [5]: 19.2%
inhibition in vivo at 3.2 mg/kg [25]: 10%
inhibition in vivo at 20 mg/kg [41]: 20%

IC50 [1]: 250 nM
SMILES: CCN(CC)C(=O)[C@@H](NC(=O)[C@H](CC(=O)O)NC(=O)CCCOc1ccc(C(=N)N)cc1)C(C)C

IC50 [14]: 140 nM
IC50 [1]: 79 nM
SMILES: CC(C)[C@H](NC(=O)[C@H](CC(=O)O)NC(=O)CCCOc1ccc(C(=N)N)cc1)C(=O)N1CCOCC1
inhibition in vivo at 3.2 mg/kg [6]: 53%
inhibition in vivo at 10 mg/kg [8]: 75%
inhibition in vivo at 10 mg/kg [9]: 59%
inhibition in vivo at 3.2 mg/kg [10]: 20%
inhibition in vivo at 10 mg/kg [42]: 96%
inhibition in vivo at 3.2 mg/kg [21]: 95%
inhibition in vivo at 3.2 mg/kg [22]: 97%
inhibition in vivo at 3.2 mg/kg [23]: 95%
Ratio [24]: 1.8
inhibition in vivo at 3.2 mg/kg [25]: 45%
